# In patent US9801961B2, “2-phenylimidazo[1,2-a]pyrimidines as imaging agents” (Hoffmann-La Roche Inc., priority 2013, dated 2017):
# Tested on: native tau aggregates
# Assay: TAU radioligand in vitro displacement assay ([3H]T808 autoradiography on human AD brain sections)
# Assay type: binding
# Details: compound 10 nM, radioligand [3H]T808 10 nM, 50 mM Tris pH 7.4, room temperature, 30 min
# Description: TAU Radioligand-In-Vitro Displacement Assay
# This in vitro binding assay assesses the affinity of compounds for native tau aggregates. The compounds are co-incubated with the well-established tau specific radioligand [^3H]T808 and the compound's displacement potency of [^3H]T808 binding is determined by in vitro autoradiography using human Alzheimer's disease (AD) brain sections (FIG. 1).
# AD human brains are purchased from Banner Sun Health Research Institute (Sun City, Ariz., USA). Pathological diagnosis of AD is made according to standard NIA-Reagan Institute criteria based on neuropathological data. The radioligand [^3H]T808 was synthesized in-house ([^3H]-2-[4-(2-Fluoro-ethyl)-piperidin-1-yl]-benzo[4,5]imidazo[1,2-a]pyrimidine, radiochemical purity 99.0%). As a reference cold T808 is used (2-[4-(2-Fluoro-ethyl)-piperidin-1-yl]-benzo[4,5]imidazo[1,2-a]pyrimidine). For the autoradiography FujiFilm Imaging Plates (BAS-IP TR 2025) are exposed to the sections and read with a FujiFilm IP reader (BAS-5000).
# Ten μm thick human AD brain sections are generated with a cryostat (Leica CM3050) at −17° C. chamber temperature and −15° C. object temperature. Sections are transferred to Histobond+microscope slides (Marienfeld Laboratory Glasware). After drying for 3 hours at room temperature the sections are stored at −20° C. The sections are incubated with the radioligand (10 nM) and the respective cold compound (at various concentrations) in 50 mM Tris buffer, pH 7.4 at room temperature for 30 min. After washing 3×10 min at 4° C. in 50 mM Tris buffer, pH 7.4 and 3 quick dips in H2O dist. at 4° C. the sections are dried at 4° C. for 3 h. The sections are placed in a FujiFilm Cassette (BAS 2025), exposed with an Imaging Plate for five days and afterwards scanned with a resolution of […].
# The signal intensity (Dens—PSL/mm2) in the region of interest (ROI) of the autoradiogram is quantified with the software MCID analysis (version 7.0, Imaging Research Inc.). The specific binding (SB) of [^3H]T808 binding in absence or in presence of a compound is calculated by subtracting the non-specific binding signal in the white matter, thus yielding SB[3H]T808 only and SBcompund. The % displacement by the various compounds is calculated as following: % displacement=100−(SBcompund/SB[3H]T808 only)*100.
# In each experiment cold T808 is used as a positive internal control. Co-incubation of equimolar amounts of hot and cold T808 is expected to reduce specific binding by approximately 50%.
row,Compound,% displacement of [3H]T808 (10 nM) at 10 nM [%]
1,"FCCC1CCN(c2ccn3cc(-c4ccc5c(c4)OCCO5)nc3n2)CC1 [Example 58, 2-(2,3-Dihydro-1,4-benzodioxin-6-yl)-7-[4-(2-fluoroethyl)piperidin-1-yl]imidazo[1,2-a]pyrimidine]",18
2,"Oc1ccc(-c2cn3ccc(N4CCCC4)nc3n2)cc1 [Example 28, 4-(7-Pyrrolidin-1-ylimidazo[1,2-a]pyrimidin-2-yl)phenol]",22
3,"Cc1cccc(-c2cn3ccc(N(C)CCF)nc3n2)c1 [Example 88, N-(2-Fluoroethyl)-N-methyl-2-(3-methylphenyl)imidazo[1,2-a]pyrimidin-7-amine]",22
4,"Cc1cccc(-c2cn3ccc(N(C)CCOCCF)nc3n2)c1 [Example 68, N-[2-(2-Fluoroethoxy)ethyl]-N-methyl-2-(3-methylphenyl)imidazo[1,2-a]pyrimidin-7-amine]",14
5,"COc1ccc(-c2cn3ccc(N4CCC(CCF)CC4)nc3n2)cc1 [Example 56, 7-[4-(2-Fluoroethyl)piperidin-1-yl]-2-(4-methoxyphenyl)imidazo[1,2-a]pyrimidine]",9
6,"FC1CCN(c2ccn3cc(-c4ccc(N5CCCC5)cc4)nc3n2)CC1 [Example 14, 7-(4-Fluoropiperidin-1-yl)-2-(4-pyrrolidin-1-ylphenyl)imidazo[1,2-a]pyrimidine]",18
7,"FC1CN(c2ccn3cc(-c4ccccc4)nc3n2)C1 [Example 71, 7-(3-Fluoroazetidin-1-yl)-2-phenylimidazo[1,2-a]pyrimidine]",18
8,"Fc1cccc(-c2cn3ccc(N4CCC4)nc3n2)c1 [Example 120, 7-(Azetidin-1-yl)-2-(3-fluorophenyl)imidazo[1,2-a]pyrimidine]",22
9,"COc1ccc(-c2cn3ccc(N4CCC4)nc3n2)cc1OC [Example 128, 7-(Azetidin-1-yl)-2-(3,4-dimethoxyphenyl)imidazo[1,2-a]pyrimidine]",15
10,"Cc1cccc(-c2cn3ccc(N(C)C)nc3n2)c1 [Example 40, N,N-Dimethyl-2-(3-methylphenyl)imidazo[1,2-a]pyrimidin-7-amine]",51
11,"COc1cc(-c2cn3ccc(N4CCC4)nc3n2)ccc1C [Example 127, 7-(Azetidin-1-yl)-2-(3-methoxy-4-methylphenyl)imidazo[1,2-a]pyrimidine]",11
12,"Cc1ccc(-c2cn3ccc(N(C)CCF)nc3n2)cc1 [Example 86, N-(2-Fluoroethyl)-N-methyl-2-(4-methylphenyl)imidazo[1,2-a]pyrimidin-7-amine]",16
13,"CN(C)c1ccn2cc(-c3ccc(CO)cc3)nc2n1 [Example 135, [4-[7-(Dimethylamino)imidazo[1,2-a]pyrimidin-2-yl]phenyl]methanol acetic acid adduct]",18
14,"CO[C@@H]1CCN(c2ccn3cc(-c4ccccc4)nc3n2)C1 [Example 31, 7-[(3R)-3-Methoxypyrrolidin-1-yl]-2-phenylimidazo[1,2-a]pyrimidine]",7
15,"CSc1cccc(-c2cn3ccc(N4CCC4)nc3n2)c1 [Example 126, 7-(Azetidin-1-yl)-2-(3-(methylthio)phenyl)imidazo[1,2-a]pyrimidine]",15
16,"COc1cccc(-c2cn3ccc(N(C)C)nc3n2)c1 [Example 35, 2-(3-Methoxyphenyl)-N,N-dimethylimidazo[1,2-a]pyrimidin-7-amine]",34
17,"COc1ccc(-c2cn3ccc(N4CCC(F)CC4)nc3n2)cc1 [Example 3, 7-(4-Fluoropiperidin-1-yl)-2-(4-methoxyphenyl)imidazo[1,2-a]pyrimidine]",31

# The next lines start with the values.
row,% displacement of [3H]T808 (10 nM) at 10 nM [%],Compound
1,6,"FCCOc1cccc(-c2cn3ccc(NC4CC4)nc3n2)c1 [Example 134, N-Cyclopropyl-2-(3-(2-fluoroethoxy)phenyl)imidazo[1,2-a]pyrimidin-7-amine]"
2,36,"CNc1ccn2cc(-c3ccc(OC)c(F)c3)nc2n1 [Example 108, 2-(3-Fluoro-4-methoxyphenyl)-N-methylimidazo[1,2-a]pyrimidin-7-amine]"
3,9,"COc1ccc(-c2cn3ccc(N(CCF)C4CC4)nc3n2)cc1 [Example 116, N-Cyclopropyl-N-(2-fluoroethyl)-2-(4-methoxyphenyl)imidazo[1,2-a]pyrimidin-7-amine]"
4,34,"CNc1ccn2cc(-c3ccc(SC)cc3)nc2n1 [Example 141, N-Methyl-2-(4-(methylthio)phenyl)imidazo[1,2-a]pyrimidin-7-amine]"
5,16,"CNc1ccn2cc(-c3cccc(OCCF)c3)nc2n1 [Example 129, 2-(3-(2-Fluoroethoxy)phenyl)-N-methylimidazo[1,2-a]pyrimidin-7-amine]"
6,27,"CNc1ccn2cc(-c3ccc(C(=O)OC)cc3)nc2n1 [Example 136, Methyl 4-[7-(methylamino)imidazo[1,2-a]pyrimidin-2-yl]benzoate]"
7,34,"CN(C)c1ccc(-c2cn3ccc(NCCF)nc3n2)cc1 [Example 96, 2-[4-(Dimethylamino)phenyl]-N-(2-fluoroethyl)imidazo[1,2-a]pyrimidin-7-amine]"
8,38,"CNc1ccn2cc(-c3ccc(C)cc3)nc2n1 [Example 82, N-Methyl-2-(4-methylphenyl)imidazo[1,2-a]pyrimidin-7-amine]"
9,33,"COc1ccc(-c2cn3ccc(N(C)CCF)nc3n2)cc1 [Example 23, N-(2-Fluoroethyl)-2-(4-methoxyphenyl)-N-methylimidazo[1,2-a]pyrimidin-7-amine]"
10,15,"FCCCOc1ccc(-c2cn3ccc(N4CCC4)nc3n2)cc1 [Example 112, 7-(Azetidin-1-yl)-2-(4-(3-fluoropropoxy)phenyl)imidazo[1,2-a]pyrimidine]"
11,11,"FCOc1ccc(-c2cn3ccc(NC4CC4)nc3n2)cc1 [Example 140, N-Cyclopropyl-2-(4-(fluoromethoxy)phenyl)imidazo[1,2-a]pyrimidin-7-amine]"
12,47,"COc1ccc(-c2cn3ccc(N(C)C)nc3n2)cc1 [Example 36, 2-(4-Methoxyphenyl)-N,N-dimethylimidazo[1,2-a]pyrimidin-7-amine]"
13,9,"FCOc1ccc(-c2cn3ccc(N4CCCC4)nc3n2)cc1 [Example 30, 2-[4-(Fluoromethoxy)phenyl]-7-pyrrolidin-1-ylimidazo[1,2-a]pyrimidine]"
14,43,"CNc1ccn2cc(-c3ccc(OCCF)cc3)nc2n1 [Example 123, 2-(4-(2-Fluoroethoxy)phenyl)-N-methylimidazo[1,2-a]pyrimidin-7-amine]"
15,34,"CCN(C)c1ccn2cc(-c3ccc(OC)cc3)nc2n1 [Example 66, N-Ethyl-2-(4-methoxyphenyl)-N-methylimidazo[1,2-a]pyrimidin-7-amine]"
16,15,"FCCOc1ccc(-c2cn3ccc(N4CCCC4)nc3n2)cc1 [Example 29, 2-[4-(2-Fluoroethoxy)phenyl]-7-pyrrolidin-1-ylimidazo[1,2-a]pyrimidine]"
17,40,"CNc1ccn2cc(-c3ccc(OCCCF)cc3)nc2n1 [Example 124, 2-(4-(3-Fluoropropoxy)phenyl)-N-methylimidazo[1,2-a]pyrimidin-7-amine]"

# Same assay, conditions: compound 1 uM, radioligand [3H]T808 10 nM, 50 mM Tris pH 7.4, room temperature, 30 min
row,% displacement of [3H]T808 (10 nM) at 1 uM [%],Compound
1,75,"FC1CCN(c2ccn3cc(-c4ccc(N5CCCC5)cc4)nc3n2)CC1 [Example 14, 7-(4-Fluoropiperidin-1-yl)-2-(4-pyrrolidin-1-ylphenyl)imidazo[1,2-a]pyrimidine]"
2,84,"CN(CCF)c1ccn2cc(-c3ccccc3)nc2n1 [Example 21, N-(2-Fluoroethyl)-N-methyl-2-phenylimidazo[1,2-a]pyrimidin-7-amine]"
3,92,"COc1ccc(-c2cn3ccc(N(C)CCF)nc3n2)cc1 [Example 23, N-(2-Fluoroethyl)-2-(4-methoxyphenyl)-N-methylimidazo[1,2-a]pyrimidin-7-amine]"
4,87,"COc1ccc(-c2cn3ccc(N4CCC(F)CC4)nc3n2)cc1 [Example 3, 7-(4-Fluoropiperidin-1-yl)-2-(4-methoxyphenyl)imidazo[1,2-a]pyrimidine]"

row,Compound,% displacement of [3H]T808 (10 nM) at 1 uM [%]
1,"Cl.FCCN1CCN(c2ccn3cc(-c4ccccc4)nc3n2)CC1 [Example 24, 7-[4-(2-Fluoroethyl)piperazin-1-yl]-2-phenylimidazo[1,2-a]pyrimidine hydrochloride]",64
